{
  "source": "patent US5912259A",
  "about": "“Method for treating and preventing neurodegenerative disorders by administering a thiazolidinone” (Warner-Lambert Company, priority 1998, dated 1999)",
  "key": {"[1]": {"test_system": "experimental autoimmune encephalomyelitis (EAE)", "procedure": "(§1) The thiazolidinone was evaluated in a mouse model of experimental autoimmune encephalomyelitis (EAE). The compound was administered orally to mice sensitized with a fragment of mouse myelin basic protein to induce EAE. Two experiments were conducted using the same protocol and neurological evaluations. Test animals were dosed for 21 days, beginning 4 hours before sensitization on Day 1. The effects of the thiazolidinone were compared to a control group of mice sensitized identically and dosed with vehicle alone. Neurological evaluations continued after cessation of drug treatment. The values reported in Tables 1 and 2 below include responses during drug treatment only.\n(§2) The thiazolidinone was homogenized manually with an aliquot of warm vehicle (0.5% hydroxypropyl methylcellulose with 0.2% Tween 80in water) in glass mortar tubes and homogenizing pestle. The smooth drug paste was gradually suspended in vehicle. Mice were dosed with drug and/or vehicle, […] in groups of ten (Experiment 1) or twenty (Experiment 2). Mice were dosed from Experiment Day 1 to Day 21. A sham-sensitized group was similarly dosed with vehicle or thiazolidinone 30 mg/kg (Experiment 1).\n(§3) Female mice, strain PL/J(F1)×SJL/J from Jackson Labs, were sensitized s.c. (0.05 cc×2) at the base of the tail with an emulsion containing equal parts of mouse myelin basic protein (MBP) fragment (amino acids 1-9 of the N-terminus of MBP) in saline and Difco Complete Freund's Adjuvant (CFA) fortified with heat killed desiccated Mycobacteria tuberculosis (MT). Each mouse received 300 μg of the MBP fragment (230 μg free base) and 200 μg MT followed by retrobulbar (i.v.) injection of 200 ng of B. pertussis toxin in 0.2 cc of saline. Forty-eight hours later, mice received a second injection of B. pertussis toxin. Mice in Experiment 1 were 8 to 9 weeks old; mice in Experiment 2 were 11 weeks old.\n(§4) Animals were weighed and evaluated for symptoms of EAE before sensitization and frequently for 21 days. EAE score: (0.5=slight limp tail, 1=limp tail or slow to right, 1.5=slight limp tail and slow to right, 2=paresis/mild paralysis or incontinence, 2.5=mild paralysis and slow to right or complete paralysis (one hind limb), 3=hind limb paralysis (both), 3.5=hind limb paralysis (both) and limp torso; 4=additional fore limb paralysis, 4.5=head movement only, 5=moribund, death after previous EAE symptoms). Evaluators were blinded as to drug treatments and previous behavioral scores.\n(§5) Disease symptoms were compared among groups for EAE severity, incidence, time to onset, cumulative score, deaths, and weight loss. Peak EAE score: the mean of highest score of each mouse in a group, independent of duration of symptoms; EAE incidence: the mean number of mice showing symptoms of EAE, defined as having EAE scores on any three consecutive days that total≥3.0. EAE deaths: An animal that died must have presented previous evidence of an EAE score greater than 0.5; EAE onset: the first of a 3-day series scoring a total of≥3.0. A Cumulative EAE score is calculated for each animal. A mean of all animals' cumulative score is then determined for each day. Maximum weight loss: the mean of the lowest weight for each animal in a group. (Note: The Cumulative EAE score and the Maximum weight loss can be influenced by death which eliminates severely diseased animals. The number of days that animals are scored also affects the cumulative score and can only be compared \"within-trial\"). Mice that die from dosing trauma or with no previous symptoms of EAE are deleted from the study. Experimental groups were assumed to be similar and were compared for statistical significance by a two-tailed t-test (p≤0.05)."}, "[2]": {"test_system": "experimental autoimmune encephalomyelitis (EAE)", "assay": "Experimental autoimmune encephalomyelitis (EAE) in mice, Experiment 2", "type": "in vivo, mouse, PL/J(F1)×SJL/J", "conditions": "sensitized", "procedure": "as §1, §2, §3, §4, §5\nThe previous study was repeated with three larger groups of sensitized mice treated with (1) vehicle, (2) thiazolidinone at 10 mg/kg, or (3) thiazolidinone at 30 mg/kg."}, "[3]": {"test_system": "IL-1β", "assay": "Production of cytokine IL-1β", "type": "cell-based"}, "[4]": {"conditions": "sensitized, 30 mg oral, (a) deaths designated due to EAE"}, "[5]": {"conditions": "sensitized, 30 mg oral, (b) deaths due to unknown causes removed"}},
  "note": "Like-named read-outs stand apart in the source and are kept apart here.",
  "data": [
    {"smiles": "CC(C)(C)c1cc(/C=C2\\SC(N)=NC2=O)cc(C(C)(C)C)c1O", "note": "[CI-1004, (Z)-5-[[3,5-bis(1,1-dimethylethyl)-4-hydroxyphenyl]methylene]-2-imino-4-thiazolidinone methanesulfonate]", "values": [
      {"measurement": "deaths at ≤Day 10", "setting": "[1]; mouse, in vivo, 30 mg/kg", "result": "three deaths"},
      {"measurement": "Cumulative Score", "setting": "[1]; sensitized, 3 mg oral", "result": "20.3 ± 1.7"},
      {"measurement": "Deaths", "setting": "[1]; sensitized, 3 mg oral", "result": "2/10"},
      {"measurement": "EAE Incidence", "setting": "[1]; sensitized, 3 mg oral", "result": "10/10"},
      {"measurement": "EAE Onset", "setting": "[1]; sensitized, 3 mg oral", "result": "12.2 ± 0.3", "unit": "days"},
      {"measurement": "EAE Peak Score", "setting": "[1]; sensitized, 3 mg oral", "result": "3.7 ± 0.3"},
      {"measurement": "Cumulative Score", "setting": "[1]; sensitized, 10 mg oral", "result": "10.9 ± 1.7"},
      {"measurement": "Deaths", "setting": "[1]; sensitized, 10 mg oral", "result": "2/10"},
      {"measurement": "EAE Incidence", "setting": "[1]; sensitized, 10 mg oral", "result": "7/10"},
      {"measurement": "EAE Onset", "setting": "[1]; sensitized, 10 mg oral", "result": "12.1 ± 1.5", "unit": "days"},
      {"measurement": "EAE Peak Score", "setting": "[1]; sensitized, 10 mg oral", "result": "3.0 ± 0.6"},
      {"measurement": "daily EAE scores, incidence, cumulative EAE scores, weight loss", "setting": "[1]; sensitized, 10 mg/kg", "result": "showed a suggestion of inhibition of daily EAE scores, reduced incidence, cumulative EAE scores, and weight loss"},
      {"measurement": "Cumulative Score", "setting": "[1]; [4]", "result": "10.9 ± 3.4"},
      {"measurement": "Deaths", "setting": "[1]; [4]", "result": "3/9"},
      {"measurement": "EAE Incidence", "setting": "[1]; [4]", "result": "7/9"},
      {"measurement": "EAE Onset", "setting": "[1]; [4]", "result": "12.7 ± 2.2", "unit": "days"},
      {"measurement": "EAE Peak Score", "setting": "[1]; [4]", "result": "3.1 ± 0.6"},
      {"measurement": "Cumulative Score", "setting": "[1]; [5]", "result": "9.4 ± 3.4"},
      {"measurement": "Deaths", "setting": "[1]; [5]", "result": "0/6"},
      {"measurement": "EAE Incidence", "setting": "[1]; [5]", "result": "4/6"},
      {"measurement": "EAE Onset", "setting": "[1]; [5]", "result": "16.0 ± 2.1", "unit": "days"},
      {"measurement": "EAE Peak Score", "setting": "[1]; sensitized, 30 mg oral, (b) deaths due to unknown causes removed, p < 0.05", "result": "2.1 ± 0.6"},
      {"measurement": "overall EAE symptoms", "setting": "[1]; sensitized, 30 mg/kg, Method A", "result": "no significant reduction in overall EAE symptoms"},
      {"measurement": "peak EAE score and weight loss", "setting": "[1]; sensitized, 30 mg/kg, Method B", "result": "significant reduction in the peak EAE score and weight loss"},
      {"measurement": "daily EAE scores Days 10 to 21", "setting": "[1]; sensitized, 30 mg/kg, Methods A and B", "result": "tendency to reduced daily EAE scores from Days 10 to 21, although a statistically significant reduction was seen only on Day 15 (p≤0.05)"},
      {"measurement": "EAE scores versus vehicle controls to Day 21", "setting": "[1]; sensitized, 3 or 10 mg/kg", "result": "did not show significantly reduced EAE scores"},
      {"measurement": "Cumulative Score", "setting": "[1]; sham-sensitized, 30 mg oral", "result": "1.4 ± 0.6"},
      {"measurement": "Deaths", "setting": "[1]; sham-sensitized, 30 mg oral", "result": "0/9"},
      {"measurement": "EAE Incidence", "setting": "[1]; sham-sensitized, 30 mg oral", "result": "0/9"},
      {"measurement": "EAE Peak Score", "setting": "[1]; sham-sensitized, 30 mg oral", "result": "0.8 ± 0"},
      {"measurement": "EAE symptoms and deaths in sham-sensitized mice", "setting": "[1]; sham-sensitized, 30 mg/kg", "result": "showed little symptoms of disease and no deaths"},
      {"measurement": "Cumulative Score", "setting": "[2]; 10 mg/kg oral", "result": "31.3 ± 3.6"},
      {"measurement": "Deaths", "setting": "[2]; 10 mg/kg oral", "result": "10/20"},
      {"measurement": "EAE Incidence", "setting": "[2]; 10 mg/kg oral", "result": "19/19"},
      {"measurement": "EAE Onset", "setting": "[2]; 10 mg/kg oral", "result": 11.8, "unit": "days"},
      {"measurement": "EAE Peak Score", "setting": "[2]; 10 mg/kg oral", "result": "4.5 ± 0.7"},
      {"measurement": "Cumulative Score", "setting": "[2]; 30 mg/kg oral", "result": "28.9 ± 2.7"},
      {"measurement": "Deaths", "setting": "[2]; 30 mg/kg oral", "result": "8/20"},
      {"measurement": "EAE Incidence", "setting": "[2]; 30 mg/kg oral", "result": "20/20"},
      {"measurement": "EAE Onset", "setting": "[2]; 30 mg/kg oral", "result": 12.4, "unit": "days"},
      {"measurement": "EAE Peak Score", "setting": "[2]; 30 mg/kg oral", "result": "4.3 ± 0.2"},
      {"measurement": "daily EAE score or overall EAE responses", "setting": "[2]; 10 or 30 mg/kg", "result": "no effect on the daily EAE score or overall EAE responses"},
      {"measurement": "production of cytokine IL-1β", "setting": "[3]", "result": "blocks production of the cytokine IL-1β"}
    ]}
  ]
}
